From patent publication US10245240B2, “Treatment of prostate carcinoma” (Pellficure Pharmaceuticals, Inc., priority 2010, dated 2019)

Key:
PTEN-P2/GFP tumor [1] = assay: In vivo effect of plumbagin added two weeks after castration, pseudo-orthotopic chamber model (Example 6); design: species or system nude mice; conditions: daily plumbagin ip 2 mg/kg, from two weeks after castration
Protocol: Intravital microscopy: Fluorescence microscopy is performed using a Mikron Instrument Microscope equipped with epi-illuminator and video-triggered stroboscopic illumination from a xenon arc (MV-7600, EG&G). A silicon intensified target camera (SIT68, Dage-MTI) is attached to the microscope. A Hamamatsu image processor (Argus 20) with firmware version 2.50 (Hamamatsu Photonic System) is used for image enhancement and for the capture of images to a computer. A Zeiss Plan Neofluar 1.25×/0.035 objective is used to obtain an over-view of the chamber and to determine tumor size. A Zeiss A-Plan 10×/0.25 objective is used to capture images for calculation of vascular parameters. A Zeiss Achroplan 20×/0.5 W objective is used to capture images for calculation of mitotic and apoptotic indices. Our system permits evaluation of the following parameters.
Mitotic and Apoptotic Indices: At each time point, two peripheral and two central ×20 fields of the tumor are captured with a FITC filter and an integrated frame grabber. Only mitotic figures in metaphase-telophase (MI) are included in the mitotic indices to exclude the potential artifact of nuclear membrane distortion. Apoptotic/Pyknotic nuclei are defined as H2B-GFP labeled nuclei with a cross sectional area <30 μm^2. Nuclear karyorrhexis (NK), easily distinguishable by the vesicular nuclear condensation and brightness of H2B-GFP, is included within this apoptotic indices.
Platinum chambers were placed in the dorsal skinfold of nude mice by surgery. Two days later, minced prostate tissue from BalbC mice (syngeneic) was grafted into the chambers and allowed to vascularize for 7 to 10 days. Small tumor cells spheroids were implanted into each chamber. Tumor cells PTEN-P2 stably transfected with H2B-GFP fusion protein (PTEN-P2/GFP) were used in these experiments. The animals were surgically castrated about three weeks after implantation to inhibit androgen production. Surgical castration induces androgen deprivation, and is known in the art to effectively mimic clinical hormone therapy. Two weeks after castration, the mice were treated daily with plumbagin at 2 mg/kg ip.

[2] = test system: LNCaP hormone-sensitive human prostate cancer cells; assay: Dose response plumbagin in human LNCaP cells, cell counting in absence of DHT; assay type: cell-based; conditions: no DHT; for % control / cell number/20 mean / cell number/20 trial 1 / cell number/20 trial 2 / cell number/20 trial 3 / cell number/20 trial 4: 24 hours
Protocol: LNCaP hormone-sensitive human prostate cancer cells were placed in androgen withdrawal medium in the absence of DHT (dihydrotestosterone). The absence of DHT simulates surgical or chemical castration. The androgen withdrawal medium was phenol-red free DMEM high-glucose containing 10% charcoal-treated Fetal Bovine Serum.
Plumbagin was added at the indicated concentrations in Table 6 for 24 hours. Cells were trypsinized and counted using a Cell Coulter counter Multisizer II, which excludes debris. The results in Table 6 represent cell numbers as percent of control (in which the number of cells in the absence of drug is 100%). FIG. 8 illustrates the effect of plumbagin in human LNCaP cells.

PTEN-P2/GFP tumor [3] = assay: In vivo effect of plumbagin combined with castration, pseudo-orthotopic chamber model (Example 5); design: species or system nude mice
Protocol: Animal model and surgical techniques: Animal experiments have been approved as appropriate. All surgical procedures are performed in a sterile laminar flow hood. Dorsal skinfold chambers and surgical instruments are autoclaved before use. Saline used to keep tissue moist during surgical preparation is mixed with gentamicin ([…]).
Male Nude mice (25-35 g body weight) are anesthetized (7.3 mg ketamine hydrochloride and 2.3 mg xylazine/100 g body weight, i.p.) and placed on a heating pad. Two symmetrical titanium frames are implanted into a dorsal skinfold, so as to sandwich the extended double layer of skin. A 15 mm full thickness circular layer is excised. The underlying muscle (M. cutaneous max.) and subcutaneous tissues are covered with a glass coverslip incorporated in one of the frames. After a recovery period of 2-3 days, prostate tissue and cancer cell spheroids are carefully placed in the chamber. Small circular Band Aids are applied on the backside of the chamber after surgery to prevent scratching. Before surgery, Buprenorphine (0.1 mg/kg) will be given IP. After surgery Meloxicam will be given in the drinking water for 4 days Meloxicam (5.0 mg/ml), is added at 35 μl per 100 ml of water to be medicated.
Preparation of stroma: A male donor mouse is euthanized and the anterior prostate tissue is excised, put in a Petri dish with antibiotics (gentamicin 50 μl/ml), and minced with fine scissors into small pieces (<1 mm^2) for implantation.
Preparation of tumor spheroids: Liquid overlay plates are generated using 1% Agarose melted in DMEM that is added to round-bottom 96-well plates (50 ul/well). […] Viability is determined using Trypan blue. […]. The size of the implanted spheroid can be determined precisely to minimize variations between animals. […]
Intravital microscopy: Fluorescence microscopy is performed using a Mikron Instrument Microscope equipped with epi-illuminator and video-triggered stroboscopic illumination from a xenon arc (MV-7600, EG&G). […]

`CC1=CC(=O)c2c(O)cccc2C1=O` [Plumbagin, 5-hydroxy-2-methylnaphthalene-1,4-dione] was tested, and the “apoptosis (AP) in tumor” value (PTEN-P2/GFP tumor [1]) was “increasing apoptosis”, the “efficiency of combination of plumbagin with castration versus castration alone” value (PTEN-P2/GFP tumor [1]) was “more efficient in vivo than castration alone” and the “mitosis (MI) in tumor” value (PTEN-P2/GFP tumor [1]) was “mitosis increased”. For the same compound, the “tumor size, castration with plumbagin” value (PTEN-P2/GFP tumor [1]) was “significant decreases in tumor size”, the “% control” value ([2]; 0.5 μM plumbagin) was 84.13% and the “cell number/20 mean” value ([2]; 0.5 μM plumbagin) was 6335. For the same compound, the “cell number/20 trial 1” value ([2]; 0.5 μM plumbagin) was 6422, the “cell number/20 trial 2” value ([2]; 0.5 μM plumbagin) was 5989 and the “cell number/20 trial 3” value ([2]; 0.5 μM plumbagin) was 6453. For the same compound, the “cell number/20 trial 4” value ([2]; 0.5 μM plumbagin) was 6475, the “% control” value ([2]; 1 μM plumbagin) was 90.95% and the “cell number/20 mean” value ([2]; 1 μM plumbagin) was 6849. The “cell number/20 trial 1” value ([2]; 1 μM plumbagin) was 6997, the “cell number/20 trial 2” value ([2]; 1 μM plumbagin) was 7139 and the “cell number/20 trial 3” value ([2]; 1 μM plumbagin) was 6769. For the same compound, the “cell number/20 trial 4” value ([2]; 1 μM plumbagin) was 6490, the “% control” value ([2]; 2 μM plumbagin) was 66.23% and the “cell number/20 mean” value ([2]; 2 μM plumbagin) was 4987. For the same compound, the “cell number/20 trial 1” value ([2]; 2 μM plumbagin) was 5324, the “cell number/20 trial 2” value ([2]; 2 μM plumbagin) was 5282 and the “cell number/20 trial 3” value ([2]; 2 μM plumbagin) was 4522. For the same compound, the “cell number/20 trial 4” value ([2]; 2 μM plumbagin) was 4821, the “% control” value ([2]; 4 μM plumbagin) was 42.21% and the “cell number/20 mean” value ([2]; 4 μM plumbagin) was 3179. The “cell number/20 trial 1” value ([2]; 4 μM plumbagin) was 3005, the “cell number/20 trial 2” value ([2]; 4 μM plumbagin) was 3082 and the “cell number/20 trial 3” value ([2]; 4 μM plumbagin) was 3327. The “cell number/20 trial 4” value ([2]; 4 μM plumbagin) was 3300, the “% control” value ([2]; 6 μM plumbagin) was 18.50% and the “cell number/20 mean” value ([2]; 6 μM plumbagin) was 1393. The “cell number/20 trial 1” value ([2]; 6 μM plumbagin) was 1396, the “cell number/20 trial 2” value ([2]; 6 μM plumbagin) was 1500 and the “cell number/20 trial 3” value ([2]; 6 μM plumbagin) was 1323. The “cell number/20 trial 4” value ([2]; 6 μM plumbagin) was 1352, the “% control” value ([2]; 8 μM plumbagin) was 3.93% and the “cell number/20 mean” value ([2]; 8 μM plumbagin) was 296. The “cell number/20 trial 1” value ([2]; 8 μM plumbagin) was 330, the “cell number/20 trial 2” value ([2]; 8 μM plumbagin) was 283 and the “cell number/20 trial 3” value ([2]; 8 μM plumbagin) was 284. For the same compound, the “cell number/20 trial 4” value ([2]; 8 μM plumbagin) was 287, the “efficiency of plumbagin with simulated castration versus castration alone” value ([2]; in vitro, LNCaP cells) was “more efficient than treatment castration alone” and the “efficiency of combination of plumbagin with castration versus either treatment alone” value (PTEN-P2/GFP tumor [3]; plumbagin 1 mg/kg intraperitoneal once/day soon after surgical castration) was “more efficient in vivo than either treatment alone”. The “tumor size, castration with plumbagin” value (PTEN-P2/GFP tumor [3]; plumbagin 1 mg/kg ip once/day plus surgical castration) was “significant decreases in tumor size” and the “tumor size, plumbagin only” value (PTEN-P2/GFP tumor [3]; plumbagin 1 mg/kg ip once/day, no castration) was “did not lead to a marked decrease in tumor size”.
